Laboratory results as given in US20180186815A1, “PHARMACEUTICAL COMPOSITIONS, METHODS FOR THEIR PREPARATION AND THEIR USE IN THE TREATMENT OF CANCER” (Urifer Ltd., priority 2016, published 2018).
Where two headings read alike, the source gives them in different places.

Tests used:
Type in all cases: cell-based
[1] = tested on: colon cancer cell line HT29; experiment: Growth profile / viability of HT29 colon cancer cells, XTT test; conditions: Homo sapiens, HT-29, 96 h, Control DMSO = 100%, read-out: percentage of viable cells, HT29
In short: (§1)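 Cells were seeded and grown untreated overnight, then exposed to compounds at a final 5 μM (0.4% v/v DMSO). Untreated and 0.4% DMSO-only cells were the controls. Percent viable cells was measured by XTT 96 h after compound addition.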

[2] = tested on: colon cancer cell line RKO; experiment: Growth profile / viability of RKO colon cancer cells, XTT test; conditions: 96 h, Control DMSO = 100%, read-out: percentage of viable cells, RKO
In short: as §1

[3] = Viability of FS non malignant fibroblastic cells, XTT test; conditions: FS cells (non-malignant fibroblastic cell line), Control DMSO = 100%, read-out: percentage of viable cells, FS
In short: as §1

[4] = tested on: colon cancer cell line HCT 116; experiment: Growth profile / viability of HCT116 colon cancer cells, XTT test; conditions: Homo sapiens, HCT-116, 96 h, Control DMSO = 100%, read-out: percentage of viable cells, HCT116
In short: as §1

Compound	viability at 5 µM ([1]; first HT29 column)	viability at 5 µM ([1]; second HT29 column)	viability at 5 µM ([2]; first RKO column)	viability at 5 µM ([2]; second RKO column)	viability at 96 h, 5 µM ([3]; first FS column)	viability at 96 h, 5 µM ([3]; second FS column)	viability at 5 µM ([4]; first HCT116 column)	viability at 5 µM ([4]; second HCT116 column)
CN(CCc1ccccn1)C(=O)C1CCN(c2nn3cc(-c4ccc(Cl)cc4)nc3s2)CC1 [Compound Z522-0203, 1-[6-(4-chlorophenyl)imidazo[2,1-b][1,3,4]thiadiazol-2-yl]-N-methyl-N-(2-pyridin-2-ylethyl) piperidine-4-carboxamide]	74%	88%	48%	48%	90%	94%	75%	75%
O=C(C1CCN(c2nn3cc(-c4ccc(Cl)cc4)nc3s2)CC1)N1CCN(c2ncccn2)CC1 [Compound Z522-0204, 6-(4-chlorophenyl)-2-{4-[(4-pyrimidin-2-ylpiperazin-1-yl)carbonyl]piperidin-1-yl}imidazo[2,1-b][1,3,4]thiadiazole]	105%	97%	92%	76%	96%	93%	97%	110%
CN(CCc1ccncc1)C(=O)C1CCN(c2nn3cc(-c4ccc(Cl)cc4)nc3s2)CC1 [Compound Z522-0205, 1-[6-(4-chlorophenyl)imidazo[2,1-b][1,3,4]thiadiazol-2-yl]-N-methyl-N-(2-pyridin-4-ylethyl) piperidine-4-carboxamide]	88%	85%	52%	62%	88%	111%	78%	71%
Cc1ccc(C)n1CCN1CCN(C(=O)C2CCN(c3nn4cc(-c5ccc(Cl)cc5)nc4s3)CC2)CC1 [Compound Z522-0209, 6-(4-chlorophenyl)-2-[4-({4-[2-(2,5-dimethyl-1H-pyrrol-1-yl)ethyl]piperazin-1-yl}carbonyl)piperidin-1-yl]imidazo[2,1-b][1,3,4]thiadiazole]	25%	30%	52%	55%	89%	96%	71%	59%
O=C(C1CCN(c2nn3cc(-c4ccc(Cl)cc4)nc3s2)CC1)N1CCCCC1CN1CCOCC1 (centres unmarked) [Compound Z522-0213, 6-(4-chlorophenyl)-2-(4-{[2-(morpholin-4-ylmethyl)piperidin-1-yl]carbonyl}piperidin-1-yl)imidazo[2,1-b][1,3,4] thiadiazole]	87%	99%	18%	13%	87%	98%	84%	88%
O=C(C1CCN(c2nn3cc(-c4ccc(Cl)cc4)nc3s2)CC1)N1CCCC(CN2CCOCC2)C1 (centres unmarked) [Compound Z522-0214, 6-(4-chlorophenyl)-2-(4-{[3-(morpholin-4-ylmethyl)piperidin-1-yl]carbonyl}piperidin-1-yl)imidazo[2,1-b][1,3,4]thiadiazole]	53%	57%	24%	23%	104%	90%	70%	71%
CN1CCN(C(=O)CN2CCN(C(=O)C3CCN(c4nn5cc(-c6ccc(Cl)cc6)nc5s4)CC3)CC2)CC1 [Compound Z522-0215, 6-(4-chlorophenyl)-2-[4-({4-[2-(4-methylpiperazin-1-yl)-2-oxoethyl]piperazin-1-yl}carbonyl)piperidin-1-yl]imidazo[2,1-b][1,3,4]thiadiazole]	14%	11%	6%	10%	85%	109%	63%	58%
CN(C)CCNC(=O)CN(C)C(=O)C1CCN(c2nn3cc(-c4ccc(Cl)cc4)nc3s2)CC1 [Compound Z522-0216, 1-[6-(4-chlorophenyl)imidazo[2,1-b][1,3,4]thiadiazol-2-yl]-N^4-(2-[2-(dimethylamino)ethyl]amino-2-oxoethyl)-N^4-methyl-4-piperidinecarboxamide]	10%	11%	0%	2%	86%	93%	68%	86%
O=C(C1CCN(c2nn3cc(-c4ccc(Cl)cc4)nc3s2)CC1)N1CCCN(c2ncccn2)CC1 [Compound Z522-0219, 6-(4-chlorophenyl)-2-{4-[(4-pyrimidin-2-yl-1,4-diazepan-1-yl)carbonyl]piperidin-1-yl}imidazo[2,1-b][1,3,4]thiadiazole]	91%	95%	48%	45%	89%	94%	75%	67%
CC(C)c1ccc(-c2cn3nc(N4CCC(C(=O)N5CCN(c6ccccn6)CC5)CC4)sc3n2)cc1 [Compound Z522-0223, 6-(4-isopropyl-phenyl)-2-{4-[(4-pyridin-2-ylpiperazin-1-yl)carbonyl]piperidin-1-yl}imidazo[2,1-b][1,3,4]thiadiazole]	83%	89%	64%	81%	87%	92%	75%	80%
CC(C)c1ccc(-c2cn3nc(N4CCC(C(=O)N(C)CCc5ccccn5)CC4)sc3n2)cc1 [Compound Z522-0226, 1-[6-(4-isopropylphenyl)imidazo[2,1-b][1,3,4]thiadiazol-2-yl]-N-methyl-N-(2-pyridin-2-ylethyl)piperidine-4-carboxamide]	101%	92%	72%	64%	91%	99%	80%	80%
CC(C)c1ccc(-c2cn3nc(N4CCC(C(=O)N5CCN(c6ncccn6)CC5)CC4)sc3n2)cc1 [Compound Z522-0227, 6-(4-isopropyl-phenyl)-2-{4-[(4-pyrimidin-2-ylpiperazin-1-yl)carbonyl]piperidin-1-yl}imidazo[2,1-b][1,3,4]thiadiazole]	91%	91%	63%	63%	89%	91%	72%	84%
CC(C)c1ccc(-c2cn3nc(N4CCC(C(=O)N(C)CCc5ccncc5)CC4)sc3n2)cc1 [Compound Z522-0228, 1-[6-(4-isopropylphenyl)imidazo[2,1-b][1,3,4]thiadiazol-2-yl]-N-methyl-N-(2-pyridin-4-ylethyl)piperidine-4-carboxamide]	58%	61%	51%	55%	111%	113%	82%	70%
